Source: the supplement of paper PMC11451515

Tests used:
Conditions in all cases: 48 h
SEM cells [1] = assay: cell viability relative to DMSO control; higher = less cytotoxic
Outline: (§1)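 Library compounds in DMSO were pin-dosed in an 11-point threefold series (47 μM to 0.79 nM) onto leukemia cells in 1536-well plates (5 μl). Plates held 500 cells/well of NOMO1 or SEM or 1000 cells/well of P12-Ichikawa, each adapted for at least four passages in each medium. Luminescence was read with CellTiter-Glo One after 48 h at 37°C. Viability means the per-plate percentage relative to DMSO wells, using cell-free wells as background.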

NOMO1 [2] = assay: AUC of viability dose-response curve (% viability x log10 dose units); higher = less sensitive
Outline: (§2)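 Area under the curve was integrated by trapezoidal rule from a log-logistic fit of normalised viability, with curves exceeding full viability scaled and quality-control failures removed. The fit had four parameters over log10 doses. Viability came from CellTiter-Glo One luminescence, normalised per plate to DMSO and cell-free wells, after leukemia cells adapted to each medium (500 or 1000 cells/well, 1536-well plates) were exposed to library compounds in DMSO for 48 h at 37°C. The 11 threefold doses ran from 47 μM to 0.79 nM.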

P12-Ichikawa [3] = assay: as above
Outline: as §2

SEM cells [4] = assay: as above
Outline: as §2

NOMO1 [5] = assay: cell viability relative to DMSO control; higher = less cytotoxic
Outline: as §1

P12-Ichikawa [6] = assay: as above
Outline: as §1

Cc1cccc(CN2CCN(C(c3ccccc3)c3ccc(Cl)cc3)CC2)c1 (centres undefined)
SEM cells [1], RPMI 5 mM glucose + 10% dialyzed FBS
Conditions	cell viability [%]
0.000781 µM	144
0.00234 µM	121
0.00702 µM	122
0.0211 µM	130
0.0632 µM	45.3
0.19 µM	104
0.569 µM	135
1.71 µM	126
5.12 µM	82.2
15.4 µM	121
46.1 µM	113

AUC of viability dose-response curve
Conditions	NOMO1 [2]	P12-Ichikawa [3]	SEM cells [4]
HPLM + 10% dialyzed FBS	464	460	436
RPMI 5 mM glucose + 10% FBS	451	429	444
RPMI 5 mM glucose + 10% dialyzed FBS	460	456	443

CC(C)n1cnc2c(NCCCCCCNC(=O)OC(C)(C)C)nc(NCCO)nc21
AUC of viability dose-response curve
Conditions	NOMO1 [2]	P12-Ichikawa [3]	SEM cells [4]
HPLM + 10% dialyzed FBS	443	464	453
RPMI 5 mM glucose + 10% FBS	455	449	462
RPMI 5 mM glucose + 10% dialyzed FBS	469	449	454

CN1CCCC(CC1)N2\N=C(CC3=CC=C(Cl)C=C3)/C4=C(C=CC=C4)C2=O (centres undefined)
cell viability [%]
Conditions	NOMO1 [5]	P12-Ichikawa [6]	SEM cells [1]
HPLM + 10% dialyzed FBS, 0.000781 µM	101	112	92.9
HPLM + 10% dialyzed FBS, 0.00234 µM	108	112	110
HPLM + 10% dialyzed FBS, 0.00702 µM	109	116	104
HPLM + 10% dialyzed FBS, 0.0211 µM	122	111	114
HPLM + 10% dialyzed FBS, 0.0632 µM	127	123	110
HPLM + 10% dialyzed FBS, 0.19 µM	125	112	112
HPLM + 10% dialyzed FBS, 0.569 µM	112	119	99.1
HPLM + 10% dialyzed FBS, 1.71 µM	120	112	106
HPLM + 10% dialyzed FBS, 5.12 µM	109	116	111
HPLM + 10% dialyzed FBS, 15.4 µM	65.7	94.5	101
HPLM + 10% dialyzed FBS, 46.1 µM	48.1	51.9	74.9
RPMI 5 mM glucose + 10% FBS, 0.000781 µM	102	109	72.4
RPMI 5 mM glucose + 10% FBS, 0.00234 µM	107	105	78.3
RPMI 5 mM glucose + 10% FBS, 0.00702 µM	120	113	71.9
RPMI 5 mM glucose + 10% FBS, 0.0211 µM	109	116	79.5
RPMI 5 mM glucose + 10% FBS, 0.0632 µM	109	117	81.8
RPMI 5 mM glucose + 10% FBS, 0.19 µM	112	126	94.8
RPMI 5 mM glucose + 10% FBS, 0.569 µM	108	123	90.2
RPMI 5 mM glucose + 10% FBS, 1.71 µM	114	121	98.9
RPMI 5 mM glucose + 10% FBS, 5.12 µM	107	122	83.8
RPMI 5 mM glucose + 10% FBS, 15.4 µM	94.2	114	80.6
RPMI 5 mM glucose + 10% FBS, 46.1 µM	55.5	66.2	73.1
RPMI 5 mM glucose + 10% dialyzed FBS, 0.000781 µM	117	109	91.7
RPMI 5 mM glucose + 10% dialyzed FBS, 0.00234 µM	118	109	108
RPMI 5 mM glucose + 10% dialyzed FBS, 0.00702 µM	107	109	96.2
RPMI 5 mM glucose + 10% dialyzed FBS, 0.0211 µM	110	113	102
RPMI 5 mM glucose + 10% dialyzed FBS, 0.0632 µM	125	124	112
RPMI 5 mM glucose + 10% dialyzed FBS, 0.19 µM	128	128	105
RPMI 5 mM glucose + 10% dialyzed FBS, 0.569 µM	121	121	108
RPMI 5 mM glucose + 10% dialyzed FBS, 1.71 µM	109	114	121
RPMI 5 mM glucose + 10% dialyzed FBS, 5.12 µM	112	118	96.5
RPMI 5 mM glucose + 10% dialyzed FBS, 15.4 µM	106	103	109
RPMI 5 mM glucose + 10% dialyzed FBS, 46.1 µM	57.1	65.9	97.6

AUC of viability dose-response curve
Conditions	NOMO1 [2]	P12-Ichikawa [3]	SEM cells [4]
HPLM + 10% dialyzed FBS	440	455	468
RPMI 5 mM glucose + 10% FBS	457	466	394
RPMI 5 mM glucose + 10% dialyzed FBS	461	461	464

CCc1nc(-c2cccc(C)c2)c(-c2ccnc(NC(=O)c3ccccc3)c2)s1
AUC of viability dose-response curve
Conditions	NOMO1 [2]	P12-Ichikawa [3]	SEM cells [4]
HPLM + 10% dialyzed FBS	461	449	463
RPMI 5 mM glucose + 10% FBS	454	456	452
RPMI 5 mM glucose + 10% dialyzed FBS	443	450	449

[O-]C(=O)C1=C(C(=C(Cl)C(=C1Cl)Cl)Cl)C/2=C/3\C=C(I)/C(=O)/C(=C3OC4=C2C=C(I)C(=C4I)[O-])I
cell viability [%]
Conditions	NOMO1 [5]	SEM cells [1]
HPLM + 10% dialyzed FBS, 0.000781 µM	101	111
HPLM + 10% dialyzed FBS, 0.00234 µM	136	106
HPLM + 10% dialyzed FBS, 0.00702 µM	116	122
HPLM + 10% dialyzed FBS, 0.0211 µM	122	106
HPLM + 10% dialyzed FBS, 0.0632 µM	140	118
HPLM + 10% dialyzed FBS, 0.19 µM	129	111
HPLM + 10% dialyzed FBS, 0.569 µM	143	120
HPLM + 10% dialyzed FBS, 1.71 µM	133	116
HPLM + 10% dialyzed FBS, 5.12 µM	130	106
HPLM + 10% dialyzed FBS, 15.4 µM	113	109
HPLM + 10% dialyzed FBS, 46.1 µM	102	73
RPMI 5 mM glucose + 10% FBS, 0.000781 µM	–	108
RPMI 5 mM glucose + 10% FBS, 0.00234 µM	–	121
RPMI 5 mM glucose + 10% FBS, 0.00702 µM	–	130
RPMI 5 mM glucose + 10% FBS, 0.0211 µM	–	133
RPMI 5 mM glucose + 10% FBS, 0.0632 µM	–	134
RPMI 5 mM glucose + 10% FBS, 0.19 µM	–	113
RPMI 5 mM glucose + 10% FBS, 0.569 µM	–	115
RPMI 5 mM glucose + 10% FBS, 1.71 µM	–	130
RPMI 5 mM glucose + 10% FBS, 5.12 µM	–	114
RPMI 5 mM glucose + 10% FBS, 15.4 µM	–	109
RPMI 5 mM glucose + 10% FBS, 46.1 µM	–	83.2

AUC of viability dose-response curve
Conditions	NOMO1 [2]	P12-Ichikawa [3]	SEM cells [4]
HPLM + 10% dialyzed FBS	474	446	466
RPMI 5 mM glucose + 10% FBS	451	450	464
RPMI 5 mM glucose + 10% dialyzed FBS	457	445	462

CCO[C@@H]1OC(=O)C[C@@H]1NC(=O)[C@@H]1CCCN1C(=O)[C@@H](NC(=O)c1ccc(N)c(Cl)c1)C(C)(C)C
cell viability [%], SEM cells [1]
Conditions	HPLM + 10% dialyzed FBS	RPMI 5 mM glucose + 10% dialyzed FBS
0.000781 µM	106	103
0.00234 µM	121	126
0.00702 µM	124	125
0.0211 µM	109	115
0.0632 µM	145	140
0.19 µM	138	158
0.569 µM	119	146
1.71 µM	150	156
5.12 µM	151	126
15.4 µM	142	146
46.1 µM	111	125

AUC of viability dose-response curve
Conditions	NOMO1 [2]	P12-Ichikawa [3]	SEM cells [4]
HPLM + 10% dialyzed FBS	328	345	453
RPMI 5 mM glucose + 10% FBS	305	356	477
RPMI 5 mM glucose + 10% dialyzed FBS	318	374	446
